# Measured values as given in US20240228920A1, “Distilled Spirit with modified Alcohol Levels with or without a Functional Ingredient” (priority 2023, published 2024).
# Molecular target: T1, MAO B (Homo sapiens, UniProt P27338)
# T1 sequence (P27338 1-520): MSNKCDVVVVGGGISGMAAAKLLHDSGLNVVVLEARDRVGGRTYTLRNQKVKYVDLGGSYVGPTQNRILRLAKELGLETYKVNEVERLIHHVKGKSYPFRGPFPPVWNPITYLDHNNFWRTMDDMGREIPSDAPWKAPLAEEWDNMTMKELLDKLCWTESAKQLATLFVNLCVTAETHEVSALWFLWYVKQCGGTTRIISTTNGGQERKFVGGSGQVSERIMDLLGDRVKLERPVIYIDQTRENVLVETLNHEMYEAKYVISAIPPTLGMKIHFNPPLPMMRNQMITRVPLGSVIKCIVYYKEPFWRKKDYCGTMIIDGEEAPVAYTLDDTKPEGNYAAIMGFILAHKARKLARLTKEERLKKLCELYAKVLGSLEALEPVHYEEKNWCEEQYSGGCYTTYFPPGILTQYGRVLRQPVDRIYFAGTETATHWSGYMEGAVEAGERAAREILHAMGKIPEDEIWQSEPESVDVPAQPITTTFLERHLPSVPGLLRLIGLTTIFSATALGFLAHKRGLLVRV
# Test: MAO B inhibitory activity assay
# Format: biochemical
# Settings: terpene at 0.5% (v/v) in Don Julio Añejo (40% ABV) minus in 40% ethanol
# Experimental: (§1) U.S. […] The contents of this document are incorporated herein by reference, but briefly, methods that include reverse osmosis and low-pressure evaporation to provide retentates with significant concentrations of these inhibitors are described. In addition, details of assay methods for monoamine oxidase activity (and therefore inhibition thereof) and for ethanol content are provided. The effect of compounds on MAOI activity in tequila was evaluated in the experiment from Table 3.
row,Compound,Δ % Inhibition MAO B (DJA + terpene) − (ETOH + terpene) [%]
1,C=CC(=C)CCC=C(C)C [β-myrcene],11
2,CC(C)=CCCC(C)=CC=O [citral],2
3,CC1=CCC(=C(C)C)CC1 [terpinolene],9
4,C=C(C)[C@@H]1CCC2=CCC[C@@H](C)[C@]2(C)C1 [valencene],20
5,Geramol,9
6,C=CCc1ccc(O)c(OC)c1 [eugenol],8

# Molecular target: T2, MAO A (Homo sapiens, UniProt P21397)
# T2 sequence (P21397 1-527): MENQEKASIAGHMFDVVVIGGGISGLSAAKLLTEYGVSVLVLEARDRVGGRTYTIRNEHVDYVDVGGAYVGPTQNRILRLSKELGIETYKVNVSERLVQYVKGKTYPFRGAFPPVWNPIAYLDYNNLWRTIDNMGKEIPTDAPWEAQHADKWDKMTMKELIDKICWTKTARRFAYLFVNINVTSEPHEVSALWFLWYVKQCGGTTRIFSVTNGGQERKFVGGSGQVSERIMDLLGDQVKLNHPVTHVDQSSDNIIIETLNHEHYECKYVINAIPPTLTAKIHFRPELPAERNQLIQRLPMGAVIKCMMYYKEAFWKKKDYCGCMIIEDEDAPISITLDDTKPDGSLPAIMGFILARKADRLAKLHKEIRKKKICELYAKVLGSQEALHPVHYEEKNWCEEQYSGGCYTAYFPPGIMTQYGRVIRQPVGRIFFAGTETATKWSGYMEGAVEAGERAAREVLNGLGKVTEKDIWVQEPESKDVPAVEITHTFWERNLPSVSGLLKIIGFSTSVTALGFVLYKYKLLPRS
# Test: MAO A inhibitory activity assay
# Format: biochemical
# Settings: terpene at 0.5% (v/v) in Don Julio Añejo (40% ABV) minus in 40% ethanol
# Experimental: as §1
row,Compound,Δ % Inhibition MAO A (DJA + terpene) − (ETOH + terpene) [%]
1,C=CC(=C)CCC=C(C)C [β-myrcene],5
2,CC(C)=CCCC(C)=CC=O [citral],0
3,CC1=CCC(=C(C)C)CC1 [terpinolene],1
4,C=C(C)[C@@H]1CCC2=CCC[C@@H](C)[C@]2(C)C1 [valencene],9
5,Geramol,4
6,C=CCc1ccc(O)c(OC)c1 [eugenol],1
